Laboratory results published in the supplement of paper PMC13207355.

How the values were obtained:
Settings in all cases: exposure time: 72 h
[1] = system: E13 (patient-derived glioblastoma stem cells of classical subtype); test: surviving fraction (nuclei count normalised to DMSO); higher = more cells surviving (less toxic)
[2] = system: E21 (patient-derived glioblastoma stem cells of mesenchymal subtype); test: as above
[3] = system: E28 (patient-derived glioblastoma stem cells of classical subtype); test: as above
[4] = system: E31 (patient-derived glioblastoma stem cells of proneural subtype); test: as above
[5] = system: E34 (patient-derived glioblastoma stem cells of proneural subtype); test: as above
[6] = system: E57 (patient-derived glioblastoma stem cells of mesenchymal subtype); test: as above
[7] = system: FT3469 (normal neural stem cell line); test: as above
[8] = system: E13; test: phenotypic distance (Euclidean, principal components) from DMSO controls (arbitrary units); higher = stronger morphological change
[9] = system: E21; test: as above
[10] = system: E28; test: as above
[11] = system: E31; test: as above
[12] = system: E34; test: as above
[13] = system: E57; test: as above
[14] = system: FT3469; test: as above
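Throughout, for phenotypic distance (Euclidean, principal components) from DMSO controls: cell Painting imaging in 384-well plates, CellProfiler features reduced to at least 20 principal components, Euclidean distance versus same-plate DMSO vehicle wells (0.1% v/v), median over six images per well.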
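Throughout, for surviving fraction (nuclei count normalised to DMSO): nuclei counted by high-content imaging of Hoechst-stained cells in laminin-coated 384-well plates, relative to 0.1% DMSO vehicle wells, with staurosporine as cell-death control.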

## C#C[C@]1(O)CC[C@H]2[C@@H]3CCC4=CCCC[C@@H]4[C@H]3CC[C@@]21C [Lynestrenol]
[1]; 4.1 nM
  surviving fraction: 0.994
[1]; 12.3 nM
  surviving fraction: 0.901
[1]; 37 nM
  surviving fraction: 1.03
[1]; 111.1 nM
  surviving fraction: 1.05
[1]; 333.3 nM
  surviving fraction: 1.03
[1]; 1000 nM
  surviving fraction: 1.04
[1]; 3000 nM
  surviving fraction: 0.88
[2]; 4.1 nM
  surviving fraction: 1.03
[2]; 12.3 nM
  surviving fraction: 0.998
[2]; 37 nM
  surviving fraction: 1.01
[2]; 111.1 nM
  surviving fraction: 1.08
[2]; 333.3 nM
  surviving fraction: 1.07
[2]; 1000 nM
  surviving fraction: 0.975
[2]; 3000 nM
  surviving fraction: 1.08
[3]; 4.1 nM
  surviving fraction: 1.06
[3]; 12.3 nM
  surviving fraction: 1.05
[3]; 37 nM
  surviving fraction: 0.924
[3]; 111.1 nM
  surviving fraction: 1.04
[3]; 333.3 nM
  surviving fraction: 1.09
[3]; 1000 nM
  surviving fraction: 1.16
[3]; 3000 nM
  surviving fraction: 1.16
[4]; 4.1 nM
  surviving fraction: 0.991
[4]; 12.3 nM
  surviving fraction: 1.12
[4]; 37 nM
  surviving fraction: 0.813
[4]; 111.1 nM
  surviving fraction: 1.26
[4]; 333.3 nM
  surviving fraction: 0.895
[4]; 1000 nM
  surviving fraction: 1.07
[4]; 3000 nM
  surviving fraction: 1.09
[5]; 4.1 nM
  surviving fraction: 0.966
[5]; 12.3 nM
  surviving fraction: 0.988
[5]; 37 nM
  surviving fraction: 0.917
[5]; 111.1 nM
  surviving fraction: 1.24
[5]; 333.3 nM
  surviving fraction: 1.03
[5]; 1000 nM
  surviving fraction: 0.979
[5]; 3000 nM
  surviving fraction: 0.946
[6]; 4.1 nM
  surviving fraction: 1.2
[6]; 12.3 nM
  surviving fraction: 1.03
[6]; 37 nM
  surviving fraction: 1.04
[6]; 111.1 nM
  surviving fraction: 1.06
[6]; 333.3 nM
  surviving fraction: 1.08
[6]; 1000 nM
  surviving fraction: 1.17
[6]; 3000 nM
  surviving fraction: 1.08
[7]; 4.1 nM
  surviving fraction: 1.1
[7]; 12.3 nM
  surviving fraction: 1.19
[7]; 37 nM
  surviving fraction: 0.984
[7]; 111.1 nM
  surviving fraction: 1.26
[7]; 333.3 nM
  surviving fraction: 1.07
[7]; 1000 nM
  surviving fraction: 1.13
[7]; 3000 nM
  surviving fraction: 1.06
[8]; 4.1 nM
  phenotypic distance: 0.399
[8]; 12.3 nM
  phenotypic distance: 0.621
[8]; 37 nM
  phenotypic distance: 0.422
[8]; 111.1 nM
  phenotypic distance: 0.821
[8]; 333.3 nM
  phenotypic distance: 0.697
[8]; 1000 nM
  phenotypic distance: 0.59
[8]; 3000 nM
  phenotypic distance: 1.03
[9]; 4.1 nM
  phenotypic distance: 0.397
[9]; 12.3 nM
  phenotypic distance: 0.584
[9]; 37 nM
  phenotypic distance: 0.589
[9]; 111.1 nM
  phenotypic distance: 0.676
[9]; 333.3 nM
  phenotypic distance: 0.662
[9]; 1000 nM
  phenotypic distance: 0.692
[9]; 3000 nM
  phenotypic distance: 1.35
[10]; 4.1 nM
  phenotypic distance: 0.488
[10]; 12.3 nM
  phenotypic distance: 0.735
[10]; 37 nM
  phenotypic distance: 0.493
[10]; 111.1 nM
  phenotypic distance: 0.306
[10]; 333.3 nM
  phenotypic distance: 0.694
[10]; 1000 nM
  phenotypic distance: 0.828
[10]; 3000 nM
  phenotypic distance: 0.566
[11]; 4.1 nM
  phenotypic distance: 0.539
[11]; 12.3 nM
  phenotypic distance: 0.803
[11]; 37 nM
  phenotypic distance: 0.671
[11]; 111.1 nM
  phenotypic distance: 0.989
[11]; 333.3 nM
  phenotypic distance: 0.806
[11]; 1000 nM
  phenotypic distance: 0.394
[11]; 3000 nM
  phenotypic distance: 1.33
[12]; 4.1 nM
  phenotypic distance: 0.505
[12]; 12.3 nM
  phenotypic distance: 0.89
[12]; 37 nM
  phenotypic distance: 0.743
[12]; 111.1 nM
  phenotypic distance: 0.994
[12]; 333.3 nM
  phenotypic distance: 0.472
[12]; 1000 nM
  phenotypic distance: 0.846
[12]; 3000 nM
  phenotypic distance: 0.609
[13]; 4.1 nM
  phenotypic distance: 0.911
[13]; 12.3 nM
  phenotypic distance: 0.621
[13]; 37 nM
  phenotypic distance: 0.561
[13]; 111.1 nM
  phenotypic distance: 0.889
[13]; 333.3 nM
  phenotypic distance: 0.765
[13]; 1000 nM
  phenotypic distance: 0.843
[13]; 3000 nM
  phenotypic distance: 0.439
[14]; 4.1 nM
  phenotypic distance: 0.64
[14]; 12.3 nM
  phenotypic distance: 1.14
[14]; 37 nM
  phenotypic distance: 0.738
[14]; 111.1 nM
  phenotypic distance: 1.23
[14]; 333.3 nM
  phenotypic distance: 0.567
[14]; 1000 nM
  phenotypic distance: 0.796
[14]; 3000 nM
  phenotypic distance: 0.874

## CC[N+](CC)(CC)CCOc1ccc(/C=C/c2ccccc2)cc1 [MG 624]
[1]; 4.1 nM
  surviving fraction: 0.872
[1]; 12.3 nM
  surviving fraction: 1.01
[1]; 37 nM
  surviving fraction: 0.904
[1]; 111.1 nM
  surviving fraction: 0.898
[1]; 333.3 nM
  surviving fraction: 0.819
[1]; 1000 nM
  surviving fraction: 0.958
[1]; 3000 nM
  surviving fraction: 0.636
[2]; 4.1 nM
  surviving fraction: 0.978
[2]; 12.3 nM
  surviving fraction: 0.972
[2]; 37 nM
  surviving fraction: 0.961
[2]; 111.1 nM
  surviving fraction: 1.05
[2]; 333.3 nM
  surviving fraction: 1.02
[2]; 1000 nM
  surviving fraction: 0.929
[2]; 3000 nM
  surviving fraction: 0.748
[3]; 4.1 nM
  surviving fraction: 1.04
[3]; 12.3 nM
  surviving fraction: 1.24
[3]; 37 nM
  surviving fraction: 0.999
[3]; 111.1 nM
  surviving fraction: 1.11
[3]; 333.3 nM
  surviving fraction: 1.29
[3]; 1000 nM
  surviving fraction: 0.97
[3]; 3000 nM
  surviving fraction: 0.897
[4]; 4.1 nM
  surviving fraction: 1.02
[4]; 12.3 nM
  surviving fraction: 1.02
[4]; 37 nM
  surviving fraction: 0.927
[4]; 111.1 nM
  surviving fraction: 1.22
[4]; 333.3 nM
  surviving fraction: 1.03
[4]; 1000 nM
  surviving fraction: 1.11
[4]; 3000 nM
  surviving fraction: 0.671
[5]; 4.1 nM
  surviving fraction: 1.13
[5]; 12.3 nM
  surviving fraction: 0.931
[5]; 37 nM
  surviving fraction: 0.93
[5]; 111.1 nM
  surviving fraction: 0.904
[5]; 333.3 nM
  surviving fraction: 1.06
[5]; 1000 nM
  surviving fraction: 1.1
[5]; 3000 nM
  surviving fraction: 0.853
[6]; 4.1 nM
  surviving fraction: 0.981
[6]; 12.3 nM
  surviving fraction: 0.982
[6]; 37 nM
  surviving fraction: 1.06
[6]; 111.1 nM
  surviving fraction: 1.1
[6]; 333.3 nM
  surviving fraction: 1.15
[6]; 1000 nM
  surviving fraction: 0.922
[6]; 3000 nM
  surviving fraction: 1.05
[7]; 4.1 nM
  surviving fraction: 0.999
[7]; 12.3 nM
  surviving fraction: 0.934
[7]; 37 nM
  surviving fraction: 1.26
[7]; 111.1 nM
  surviving fraction: 1.25
[7]; 333.3 nM
  surviving fraction: 1.13
[7]; 1000 nM
  surviving fraction: 1.12
[7]; 3000 nM
  surviving fraction: 1.03
[8]; 4.1 nM
  phenotypic distance: 0.785
[8]; 12.3 nM
  phenotypic distance: 1.16
[8]; 37 nM
  phenotypic distance: 0.769
[8]; 111.1 nM
  phenotypic distance: 0.848
[8]; 333.3 nM
  phenotypic distance: 1.65
[8]; 1000 nM
  phenotypic distance: 2.21
[8]; 3000 nM
  phenotypic distance: 2.89
[9]; 4.1 nM
  phenotypic distance: 0.724
[9]; 12.3 nM
  phenotypic distance: 0.703
[9]; 37 nM
  phenotypic distance: 0.669
[9]; 111.1 nM
  phenotypic distance: 0.982
[9]; 333.3 nM
  phenotypic distance: 1.38
[9]; 1000 nM
  phenotypic distance: 1.38
[9]; 3000 nM
  phenotypic distance: 2.84
[10]; 4.1 nM
  phenotypic distance: 2.26
[10]; 12.3 nM
  phenotypic distance: 1.2
[10]; 37 nM
  phenotypic distance: 0.981
[10]; 111.1 nM
  phenotypic distance: 1.14
[10]; 333.3 nM
  phenotypic distance: 1.59
[10]; 1000 nM
  phenotypic distance: 0.807
[10]; 3000 nM
  phenotypic distance: 0.948
[11]; 4.1 nM
  phenotypic distance: 2.31
[11]; 12.3 nM
  phenotypic distance: 2.34
[11]; 37 nM
  phenotypic distance: 0.662
[11]; 111.1 nM
  phenotypic distance: 1.14
[11]; 333.3 nM
  phenotypic distance: 1.83
[11]; 1000 nM
  phenotypic distance: 2.39
[11]; 3000 nM
  phenotypic distance: 3.97
[12]; 4.1 nM
  phenotypic distance: 0.531
[12]; 12.3 nM
  phenotypic distance: 0.708
[12]; 37 nM
  phenotypic distance: 1
[12]; 111.1 nM
  phenotypic distance: 0.94
[12]; 333.3 nM
  phenotypic distance: 1.4
[12]; 1000 nM
  phenotypic distance: 1.76
[12]; 3000 nM
  phenotypic distance: 0.649
[13]; 4.1 nM
  phenotypic distance: 0.764
[13]; 12.3 nM
  phenotypic distance: 0.906
[13]; 37 nM
  phenotypic distance: 0.99
[13]; 111.1 nM
  phenotypic distance: 1.14
[13]; 333.3 nM
  phenotypic distance: 1.29
[13]; 1000 nM
  phenotypic distance: 1.55
[13]; 3000 nM
  phenotypic distance: 1.49
[14]; 4.1 nM
  phenotypic distance: 0.491
[14]; 12.3 nM
  phenotypic distance: 1.05
[14]; 37 nM
  phenotypic distance: 0.814
[14]; 111.1 nM
  phenotypic distance: 1.61
[14]; 333.3 nM
  phenotypic distance: 1.29
[14]; 1000 nM
  phenotypic distance: 1.26
[14]; 3000 nM
  phenotypic distance: 1.36
